Reference: patent US20260049072A1, “HETEROCYCLIC COMPOUND FOR INDUCING DEGRADATION OF MUTANT KRAS PROTEIN” (Astellas Pharma Inc., priority 2022, published 2026)

What was measured:
MIA PaCa-2 cells = assay: Non-anchorage-dependent cell growth inhibition (spheroid 3D culture), MIA PaCa-2; assay type: cell-based; details: Homo sapiens, MIA PaCa-2, 144 h; KRAS G12C mutant-positive, 3D spheroid, six days, CellTiter-Glo 2.0; read-out: MIA PaCa-2 IC50
Experimental: (§1) Test Example 3: Evaluation of Non-Anchorage-Dependent Cell Growth Inhibitory Activity on Human KRAS G12V Mutant-Positive Pancreatic Cancer Line PA-TU-8902, Human KRAS G12D Mutant-Positive Pancreatic Cancer Line AsPC-1 or Human KRAS G12C Mutant-Positive Pancreatic Cancer Line MIA PaCa-2
(§2) The non-anchorage-dependent cell growth inhibitory activities of subject compounds were evaluated by spheroid 3D cell culture.
(§3) PA-TU-8902 cells, AsPC-1 cells or MIA PaCa-2 cells (RIKEN BRC, RCB2094) were seeded at 36 µL/well on a low-cell-adhesive round bottom 384-well plate (Prime Surface: from Sumitomo Bakelite) to give 5×10^2 cells per well. The PA-TU-8902 cells were under the same conditions as in Test Example 1-1, and the AsPC-1 cells were under the same conditions as in Test Example 1-2. For the MIA PaCa-2 cells, RPMI-1640 medium containing 10% fetal bovine serum was used in the presence of 5% CO2 at 37° C.
(§4) The next day, the subject compounds (6-9 points having final concentrations in the range of 3 μM to 0.3 nM) and DMSO, which was the solvent for the subject compounds, as a negative control were diluted 100-fold with a fresh medium and were each added at 4 μL per well. After culturing in the presence of 5% CO2 at 37° C. for six days, CellTiter-Glo 2.0 (from Promega) was added at 20 μL per well. After stirring with a plate mixer (from FINEPCR) at normal temperature for an hour, the luminescent signals were measured with ARVO X3 (from PerkinElmer).
(§5) With the signaling value in treatment with DMSO taken as 0% inhibition and with the signaling value in the medium alone without cells taken as 100% inhibition, the 50% inhibition values (IC50) were calculated by Sigmoid-Emax model nonlinear regression analysis.

AsPC-1 cells = assay: Non-anchorage-dependent cell growth inhibition (spheroid 3D culture), AsPC-1; assay type: cell-based; details: Homo sapiens, ASPC1, 144 h; KRAS G12D mutant-positive, 3D spheroid, six days, CellTiter-Glo 2.0; read-out: AsPC-1 IC50
Experimental: as §1, §2, §3, §4, §5

PA-TU-8902 cells = assay: Non-anchorage-dependent cell growth inhibition (spheroid 3D culture), PA-TU-8902; assay type: cell-based, human; details: Homo sapiens, PaTu 8902, 144 h; KRAS G12V mutant-positive, 3D spheroid, six days, CellTiter-Glo 2.0; read-out: PA-TU-8902 IC50
Experimental: as §1, §2, §3, §4, §5

[1] = test system: phosphorylation of ERK (Thr202/Tyr204); assay: ERK phosphorylation inhibitory activity, cell ELISA, PA-TU-8902; assay type: cell-based; details: Homo sapiens, PaTu 8902; PA-TU-8902 cells, 24 hours, 100% = 300 nM trametinib; read-out: IC50 (ERK phosphorylation inhibition)
Experimental: Test Example 2: Evaluation of ERK Phosphorylation Inhibitory Activity on Human KRAS G12V Mutant-Positive Pancreatic Cancer Line PA-TU-8902
The ERK phosphorylation inhibitory activities of subject compounds were evaluated by measuring phosphorylation of the 202th threonine (Thr202) and the 204th tyrosine (Tyr204) of ERK located downstream of the KRAS signal by cell ELISA.
PA-TU-8902 cells were seeded at 36 µL/well on a 384-well plate (from Greiner bio-one) to give 5.0×10^3 cells per well. The cell culture conditions were the same conditions as in Test Example 1-1.
The next day, the subject compounds (9 points having final concentrations in the range of 3 μM to 0.3 nM), trametinib (MEK inhibitor) of a final concentration of 300 nM as a positive control and DMSO, which was the solvent for the subject compounds, as a negative control were diluted 100-fold with a fresh medium and were each added at 4 μL per well, followed by culturing for 24 hours. After culturing, a 30% glyoxal solution (40% glyoxal [from Nacalai Tesque] was diluted with PBS) was quickly added at 30 μL per well, and the plate was allowed to stand for an hour and 30 minutes at room temperature to thus immobilize the cells. Then, the plate was centrifuged (110×g, seven seconds, hereinafter centrifugation was performed under the same conditions unless otherwise specified) to remove the supernatant, and 0.1% Triton X-100-containing PBS was added at 20 μL per well. After allowing the plate to stand for 10 minutes at room temperature, the supernatant was removed by centrifugation, and the same operation was further repeated. Next, 0.5% SDS-containing PBS was added at 20 μL per well. The plate was allowed to stand at room temperature for 30 minutes and was then centrifuged to remove the supernatant. Subsequently, a blocking solution (Intercept Blocking Buffer) was added at 20 μL per well, and the plate was allowed to stand for an hour at room temperature. The supernatant was removed by centrifugation, and an ERK (Thr202/Tyr204) phosphorylation antibody (Phospho-p44/42 MAPK (Erk 1/2) (Thr202/Tyr204) (D13.14.4E) XP Rabbit mAb; from Cell Signaling Technology) diluted 2,500-fold with the blocking solution was added at 15 μL per well as a primary antibody. The plate was allowed to stand at 4° C. overnight.
The next day, the plate was centrifuged to remove the supernatant, and 0.05% Tween-20-containing PBS (from Thermo Scientific; 20×PBS Tween-20 was diluted 20-fold with ion exchange water and used) was added at 50 μL per well. The supernatant was removed by centrifugation to thus wash each well. The washing was performed three times in total. After washing, an anti-rabbit IgG antibody diluted 1,000-fold with the blocking solution was added at 15 μL per well as a secondary antibody, and the plate was allowed to stand for an hour at room temperature. The plate was centrifuged to remove the supernatant, and each well was washed three times with 0.05% Tween-20-containing PBS in the same manner as after the primary antibody reaction. Centrifugation after the third washing was performed at 171×g for 17 seconds. After removing the supernatant, the plate was dried as it was with air at room temperature for three hours or more, and the 800-nm fluorescent signals were measured with Aerius.
With the signaling value at the time of addition of DMSO taken as 0% inhibition and with the signaling value at the time of addition of 300 nM trametinib taken as 100% inhibition, the 50% inhibition values (IC50) were calculated by Sigmoid-Emax model nonlinear regression analysis.

Structure (SMILES) | IC50 (MIA PaCa-2 cells) [nM] | IC50 (AsPC-1 cells) [nM] | IC50 [1] [nM] | IC50 (PA-TU-8902 cells) [nM]
CO[C@@H](C)COc1nc(NC2CN(C(=O)O[C@H]3C[C@@H](N(C)C)C3)C2)c2cc(C3CC3)c(-c3c(C)c(F)cc4[nH]ncc34)c(OCc3ccc(-c4cn([C@H](C(=O)N5C[C@H](O)C[C@H]5C(=O)N[C@@H](CO)c5ccc(-n6cncn6)cc5)C(C)C)nn4)cc3)c2n1 (atropisomer, axis not shown; (M)) [Example 2, (1s,3R)-3-(dimethylamino)cyclobutyl 3-({(7M)-6-cyclopropyl-7-(6-fluoro-5-methyl-1H-indazol-4-yl)-8-{[4-(1-{(2S)-1-[(2S,4R)-4-hydroxy-2({(1R)-2-hydroxy-1-[4-(1H-1,2,4-triazol-1-yl)phenyl]ethyl}carbamoyl)pyrrolidin-1-yl]-3-methyl-1-oxobutan-2-yl}-1H-1,2,3-triazol-4-yl)phenyl]methoxy}-2-[(2S)-2-methoxypropoxy]quinazolin-4-yl}amino)azetidine-1-carboxylate] | 12 | 11 | 16 | 33
CO[C@@H](C)COc1nc(NC2CN(C(=O)O[C@H]3C[C@@H](N(C)C)C3)C2)c2cc(C3CC3)c(-c3c(C)c(F)cc4[nH]ncc34)c(OCc3ccc(-c4cn([C@H](C(=O)N5C[C@H](O)C[C@H]5C(=O)N[C@@H](CO)c5ccc(-c6scnc6C)cc5)C(C)C)nn4)cc3)c2n1 (atropisomer, axis not shown; (M)) [Example 11, (1s,3R)-3-(dimethylamino)cyclobutyl 3-({(7M)-6-cyclopropyl-7-(6-fluoro-5-methyl-1H-indazol-4-yl)-8-{[4-(1-{(2S)-1-[(2S,4R)-4-hydroxy-2-({(1R)-2-hydroxy-1-[4-(4-methyl-1,3-thiazol-5-yl)phenyl]ethyl}carbamoyl)pyrrolidin-1-yl]-3-methyl-1-oxobutan-2-yl}-1H-1,2,3-triazol-4-yl)phenyl]methoxy}-2-[(2S)-2-methoxypropoxy]quinazolin-4-yl}amino)azetidine-1-carboxylate] | 13 | 11 | 14 | 45
CO[C@@H](C)COc1cc(OC2CN(C(=O)O[C@H]3C[C@@H](N(C)C)C3)C2)c2cc(C3CC3)c(-c3c(C)c(F)cc4[nH]ncc34)c(OCc3ccc(-c4cn([C@H](C(=O)N5C[C@H](O)C[C@H]5C(=O)N[C@@H](CO)c5ccc(-n6cncn6)cc5)C(C)C)nn4)cc3)c2n1 (atropisomer, axis not shown; (M)) [Example 13, (1s,3R)-3-(dimethylamino)cyclobutyl 3-({(7M)-6-cyclopropyl-7-(6-fluoro-5-methyl-1H-indazol-4-yl)-8-{[4-(1-{(2S)-1-[(2S,4R)-4-hydroxy-2-({(1R)-2-hydroxy-1-[4-(1H-1,2,4-triazol-1-yl)phenyl]ethyl}carbamoyl)pyrrolidin-1-yl]-3-methyl-1-oxobutan-2-yl}-1H-1,2,3-triazol-4-yl)phenyl]methoxy}-2-[(2S)-2-methoxypropoxy]quinolin-4-yl}oxy)azetidine-1-carboxylate] | 13 | 18 | 9 | 36

Continued, in another order:

IC50 (MIA PaCa-2 cells) [nM] | IC50 (AsPC-1 cells) [nM] | IC50 [1] [nM] | Structure (SMILES) | IC50 (PA-TU-8902 cells) [nM]
5 | 8 | 8 | CO[C@@H](C)COc1cc(OC2CN(C(=O)N3CC(CN(C)C)C3)C2)c2cc(C3CC3)c(-c3c(C)c(F)cc4[nH]ncc34)c(OCc3ccc(-c4cn([C@H](C(=O)N5C[C@H](O)C[C@H]5C(=O)N[C@@H](CO)c5ccc(-n6cncn6)cc5)C(C)C)nn4)cc3)c2n1 (atropisomer, axis not shown; (M)) [Example 5, (4R)-1-[(2S)-2-(4-{4-[({(7M)-6-cyclopropyl-4-[(1-{3-[(dimethylamino)methyl]azetidine-1-carbonyl}azetidin-3-yl)oxy]-7-(6-fluoro-5-methyl-1H-indazol-4-yl)-2-[(2S)-2-methoxypropoxy]quinolin-8-yl}oxy)methyl]phenyl}-1H-1,2,3-triazol-1-yl)-3-methylbutanoyl]-4-hydroxy-N-{(1R)-2-hydroxy-1-[4-(1H-1,2,4-triazol-1-yl)phenyl]ethyl}-L-prolinamide] | 29
7 | 14 | 7 | CO[C@@H](C)COc1cc(OC2CN(C(=O)N3CC(CN(C)C)C3)C2)c2cc(C3CC3)c(-c3c(C)c(F)cc4[nH]ncc34)c(OCc3ccc(-c4cn([C@H](C(=O)N5C[C@H](O)C[C@H]5C(=O)N[C@@H](CO)c5ccc(-c6ocnc6C)cc5)C(C)C)nn4)cc3)c2n1 (atropisomer, axis not shown; (M)) [Example 6, (4R)-1-[(2S)-2-(4-{4-[({(7M)-6-cyclopropyl-4-[(1-{3-[(dimethylamino)methyl]azetidine-1-carbonyl}azetidin-3-yl)oxy]-7-(6-fluoro-5-methyl-1H-indazol-4-yl)-2-[(2S)-2-methoxypropoxy]quinolin-8-yl}oxy)methyl]phenyl}-1H-1,2,3-triazol-1-yl)-3-methylbutanoyl]-4-hydroxy-N-{(1R)-2-hydroxy-1-[4-(4-methyl-1,3-oxazol-5-yl)phenyl]ethyl}-L-prolinamide] | 32
20 | 17 | 18 | CO[C@@H](C)COc1cc(OC2CN(C(=O)NCCN(C)C)C2)c2cc(C3CC3)c(-c3c(C)c(F)cc4[nH]ncc34)c(OCc3ccc(-c4cn([C@H](C(=O)N5C[C@H](O)C[C@H]5C(=O)N[C@@H](CO)c5ccc(-n6cncn6)cc5)C(C)C)nn4)cc3)c2n1 (atropisomer, axis not shown; (M)) [Example 12, (4R)-1-[(2S)-2-(4-{4-[({(7M)-6-cyclopropyl-4-[(1-{[2-(dimethylamino)ethyl]carbamoyl}azetidin-3-yl)oxy]-7-(6-fluoro-5-methyl-1H-indazol-4-yl)-2-[(2S)-2-methoxypropoxy]quinolin-8-yl}oxy)methyl]phenyl}-1H-1,2,3-triazol-1-yl)-3-methylbutanoyl]-4-hydroxy-N-{(1R)-2-hydroxy-1-[4-(1H-1,2,4-triazol-1-yl)phenyl]ethyl}-L-prolinamide] | 36
